We go through eight compounds from patent US8163788B2, “Low-molecular inhibitors of cytohesin-family guanine nucleotide exchange factors” (Rheinische Friedrich-Wilhelms Universitat Bonn, priority 2004, dated 2012).

Like-named read-outs stand apart in the source and are kept apart here.

In one data set the target is T1, sec7-domain of Gea2 (Saccharomyces cerevisiae, UniProt P39993).
T1 construct: 1 μM of the purified sec7-domain of cytohesin-1, cytohesin-2 and Gea2; made in house; host or cells: E. coli BL21DE3
T1 sequence (P39993 570-714): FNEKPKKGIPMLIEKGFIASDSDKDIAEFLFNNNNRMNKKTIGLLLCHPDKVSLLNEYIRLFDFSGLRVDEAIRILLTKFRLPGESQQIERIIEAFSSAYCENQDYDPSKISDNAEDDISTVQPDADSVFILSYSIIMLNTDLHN
In words: GDP/GTP exchange on NΔ17-ARF1 catalysed by sec7-domain (tryptophan fluorescence). The data set is classed as biochemical. As to the method: (§1) The IC50 value for the inhibition of the exchange activity of the sec7-domains of various guanine nucleotide exchange factors of the compounds (9), (10), (11), (12), (14) and (19) was determined.
(§2) For this purpose, the sec7-domains of cytohesin-1, cytohesin-2 and Gea2 as well as the NΔ 17-ARF 1, a mutant of the ARF protein, recombinantly expressed in E. coli BL21DE3, were purified by means of a standard method and used as catalysts for the exchange from GDP to GTP in GTPases of the family of the ADP ribosylation factors. The exchange from GDP to GTP induces a conformation change of the ribosylation factor, as a result of which the fluorescence of a tryptophan radical of the protein is increased.
(§3) In 50 mM of HEPES, pH 7.4, 120 mM of KCl, 1 mM of MgCl2, 45 μM of GTP S, the compounds (9), (10), (11), (12), (14) and (19), each in concentrations of 1 μM to 30 μM, were added to 1 μM NΔ 17-ARF1 and, in each case, 1 μM of the purified sec7-domain of cytohesin-1, cytohesin-2 and Gea2, and the fluorescence was measured in a Varioskan, Thermo LifeSciences Inc., at the following wavelengths: excitation: 275 nm, emission 340 nm.
(§4) The IC50 value can be determined by plotting the initial rise of the fluorescence signal against the added concentrations of the compounds. The IC50 value corresponds to the concentration of the compounds at which the activity of the protein is reduced to half. […] Brefeldin A, a specific inhibitor of the […] Gea2 served as the control.

Data set [1] concerns the target T2, sec7-domain of cytohesin-2 (Homo sapiens, UniProt Q99418).
T2 construct: 1 μM of the purified sec7-domain of cytohesin-1, cytohesin-2 and Gea2; made in house; host or cells: E. coli BL21DE3
T2 sequence (Q99418 72-201 limits assumed): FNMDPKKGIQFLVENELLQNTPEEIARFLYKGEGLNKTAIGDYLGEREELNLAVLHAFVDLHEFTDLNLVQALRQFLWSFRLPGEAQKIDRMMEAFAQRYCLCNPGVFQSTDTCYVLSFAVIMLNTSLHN
The description is as above. It counts as biochemical. The following applies: 1 μM NΔ17-ARF1, 1 μM sec7-domain, compounds 1 μM to 30 μM. As to the method: as §1, §2, §3, §4

In data set [2] the target is T3, sec7-domain of cytohesin-1 (Homo sapiens, UniProt Q15438).
T3 construct: central sec7-domain, corresponding to the amino acids 62-244 in cytohesin-1; made in house; host or cells: E. coli BL21DE3
T3 sequence (Q15438 62-244): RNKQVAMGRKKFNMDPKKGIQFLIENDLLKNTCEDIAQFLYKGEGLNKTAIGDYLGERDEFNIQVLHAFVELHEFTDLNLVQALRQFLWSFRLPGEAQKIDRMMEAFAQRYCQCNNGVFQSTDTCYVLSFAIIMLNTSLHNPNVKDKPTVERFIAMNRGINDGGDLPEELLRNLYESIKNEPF
The description is as above. It counts as biochemical. The note with it: 1 μM NΔ17-ARF1, 1 μM sec7-domain, compounds 1 μM to 30 μM. The procedure: as §1, §2, §3, §4

Data set [3] deals with sec7-domain of cytohesin-1. Described as above. The data set is classed as biochemical. The following applies: conclusion in words from Table 1. As to the method: as §1, §2, §3, §4
The nature of data set [4]: MTT assay (LC50) in HeLa-cells. The following applies: human, after 24 hours. The data set is classed as cell-based. The procedure: The LC50 values were determined by an MTT assay according to a standard method.
The LC50 value describes the lethal concentration at which […] died within 24 hours after a one-time administration.

The subject of another data set is cytohesin-2. In words: luciferase assay in HeLa-cells (serum response element activation, MAPK path via cytohesin-2). The note with it: compounds 1 μM to 50 μM, read-out: IC50 (luciferase signal). The data set is classed as cell-based. As to the method:
The IC50 value was determined in comparison to the LC50 value in a luciferase assay in HeLa-cells, corresponding to the test conditions described in Theis, M. G. et al., Proc Natl Acad Sci USA, 101, 11221-26 (2004). The stimulation of receptor tyrosine kinases by means of growth factors contained in fetal calf serum activates the MAPK path via cytohesin-2 and results in an activation of the serum response element. This activation manifests itself in the quantity of luciferase produced in the cells.
Compounds (9), (10), (11), (12), (14) and (19) were each added in concentrations of 1 μM to 50 μM to 6.5×10^4 HeLa-cells.
The IC50 value was determined from the plotting of the concentration of the compound against the intensity of the luciferase signal.

In data set [5] the test system is human peripheral blood cells (PBL). The data set is described as follows: adhesion of human peripheral blood cells (PBL) to ICAM-1 after stimulation with OKT3 or PMA. It counts as cell-based. The following applies: stimulation with OKT3; FIG. 2. From the text:
Human peripheral blood cells (PBL) were stimulated with agonists that activate a beta-2 integrin-dependent adhesion. In these primary human lymphocytes, the beta-2 integrin-dependent adhesion can be activated by cytohesins at the specific ligands ICAM-1.
The agonists employed were the monoclonal antibody OKT3 (hybridome of ATCC, mAb OKT3 purified on protein A, according to standard methods from Current Protocols in Immunology, 5th Ed., Coligan et al., Edts, Wiley 2004) against the CD3 complex, a T-cell receptor and phorbolester (PMA), which non-physiologically activates intracellular signal cascades in human PBL including integrin-dependent adhesion while circumventing cytohesins.
Cells from human blood were isolated according to standard methods (Current Protocols in Immunology, 5th Ed., 2004, Coligan et al., Edts, Wiley). Cell culture dishes coated with ICAM-1 were produced by means of recombinant ICAM-1-Fc fusion protein (Kolanus, W. et al., Cell 86, 233-42 (1996), Geiger, C. et al., EMBO J., 19, 2525-2536 (2000)). 300,000 human peripheral blood cells (PBL) were stimulated for 30 minutes with 2 μg/ml of OKT3 or 40 ng/ml of phorbolester (PMA) in Hank's BSS, (Gibco; composition (g/l): CaCl2x2H2O (0.185), KCl (0.4), KH2PO4 (0.06), MgCl2x6H2O (0.1), MgSO4x7H2O (0.1), NaCl (8.0), NaHCO3 (0.35), Na2HPO4 (0.048), D-glucose (1.0)), and placed for one hour in Hank's BSS onto the ICAM-1 coated cell culture dishes, whereby the agonists were not removed. Non-bound cells were removed by washing with Hank's BSS. The percentage of bound cells was determined by counting under a microscope using a standard counting grid.

As for `CCOc1nc(-c2ccccc2F)n(-c2ccc(NC(=O)CSc3ccccc3)cc2)n1` [Compound 11], the IC50 – broadly, the concentration that gives 50% inhibition – is 42 ± 4 µM at sec7-domain of Gea2, 12.4 ± 0.3 µM in data set [1], 8.8 ± 0.3 µM in data set [2] and 5 ± 1.5 µM in the data set on cytohesin-2. Moreover, the “specificity of inhibition of sec7-domains (cytohesins vis-à-vis Gea2)” value in data set [3] is recorded as “specific inhibition of the sec7-domains of the cytohesins”. Moreover, the midpoint of cytotoxicity in data set [4], the CC50 at 24 h, lay at 142 ± 12 µM.
Take `CCOCCCN(Cc1nc(C(=O)NCCCOCO)co1)C(=O)c1ccccc1Br` [Control 2, reference compound]: in data set [5], the “effect on OKT3-mediated adhesion in primary human lymphocytes” value is reported as “no effect”.
As for `CC(C)(C)c1ccc(S(=O)(=O)N(Cc2ccc(OS(C)(=O)=O)cc2)CC2CCCO2)cc1` (stereo not shown) [Control 1, reference compound], the CC50 (usually the concentration giving 50% cytotoxicity) at 24 h in data set [4] was above 150 µM. Moreover, in the data set on cytohesin-2, the IC50 was above 50 µM.
As to `CN(c1cc(Cl)nc(SCc2ccc(C(=O)NCc3ccco3)cc2)n1)C1CCCCC1` [Compound 12], the IC50 at sec7-domain of Gea2 turned out to be 22 ± 2 µM; in data set [1] it was 19.5 ± 0.3 µM; in data set [2], 8 ± 0.3 µM; in the data set on cytohesin-2 it was 5 ± 1.5 µM. The “specificity of inhibition of sec7-domains (cytohesins vis-à-vis Gea2)” value in data set [3] is listed as “specific inhibition of the sec7-domains of the cytohesins”. Besides, the CC50 at 24 h in data set [4] was above 150 µM.
Take `O=C(O)[C@H]1CSCN1C(=O)Cc1cccs1` [Compound 19]: the values for the IC50 (in data set [1]; in data set [2]; in the data set on cytohesin-2) were 20 ± 0.6 µM, 15 ± 0.3 µM and 3.5 ± 0.5 µM, respectively. Further, in data set [3], the “specificity of inhibition of sec7-domains (cytohesins vis-à-vis Gea2)” value is reported as “specific inhibition of the sec7-domains of the cytohesins”. In addition, in data set [4], the CC50 at 24 h is above 150 µM.
As for `C[C@H]1CCC/C=C/[C@@H]2C[C@H](O)C[C@H]2[C@H](O)/C=C/C(=O)O1` [Brefeldin A, reference compound], the IC50 on sec7-domain of Gea2 (1 μM NΔ17-ARF1, 1 μM sec7-domain, compounds 1 μM to 30 μM, read-out: IC50 Gea2-sec7) was 23 ± 1 µM; in data set [1], above 150 µM; in data set [2], above 150 µM. Also, the “specificity of inhibition of sec7-domains (cytohesins vis-à-vis Gea2)” value in data set [3] is “specific inhibition of the sec7-domain of Gea2”.
As to `CCOc1nc(-c2cccc(F)c2)n(-c2ccc(NC(=O)Cc3cccs3)cc2)n1` [Compound 10], the IC50 on sec7-domain of Gea2 turned out to be 67 ± 5 µM; in data set [1] it was 16.1 ± 0.9 µM; in data set [2], 12.6 ± 0.3 µM; with cytohesin-2, 23 ± 5 µM. In addition, in data set [3], the “specificity of inhibition of sec7-domains (cytohesins vis-à-vis Gea2)” value is reported as “specific inhibition of the sec7-domains of the cytohesins”. The same compound had a CC50 at 24 h in data set [4] above 150 µM.
As for `O=C(CN(CC1CCCO1)C(=O)Cc1cccs1)N(Cc1ccc(F)cc1)Cc1ccco1` (stereo not shown) [Compound 14], the IC50 worked out at 19.3 ± 0.3 µM in data set [1], 14.8 ± 0.3 µM in data set [2] and 3 ± 1 µM in the data set with cytohesin-2. Besides, the “specificity of inhibition of sec7-domains (cytohesins vis-à-vis Gea2)” value in data set [3] is “specific inhibition of the sec7-domains of the cytohesins”.
